Results from paper PMC9482650, “Quantitative fragmentomics allow affinity mapping of interactomes” (Nature Communications, 2022).
Ends that are not written are not given here. * marks the point of attachment. Biotin = O=C1N[C@H]2[C@H](CS[C@H]2CCCCC(=O)*)N1; ttds = NCCCOCCOCCOCCCNC(=O)CCC(=O)*

Columns and labels:
PDZ-proteins = assay: Estimated PPI affinity, additive association constants of all PDZ sites; assay type: binding, human;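 further: calculated estimate, not directly measured: domain-motif affinities from holdup assays, association constants summed over all PDZ sites, one motif bound at a time, weak interactions ignored, giving a lower limit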
Excerpt: We used the previously generated domain-motif interactome, consisting of the composite affinities (i.e., taken from the most reliable holdup method; see above) to estimate affinities of PPIs. We assumed that a multidomain PDZ-protein can only interact with a single PBM at the same time (Eq. (4)):4 PDZ+PBM⇌(PDZ−PBM)site1,or(PDZ−PBM)site2,or(PDZ−PBM)siten
Using this approximation, as proposed by others before[45], the association constant of a multi-site interaction is the sum of the association constants of all sites (Eq. (5)):5 Ka,additive=[PDZ−PBM]site1+[PDZ−PBM]site2+…+[PDZ−PBM]siten/[PDZ]×[PBM]=∑Ka,site
The contribution of unmeasurable weak interactions was also neglected in the calculations.

[1] = test system: Jurkat cell extract preys; assay: PBM-AP-MS, PBM peptide baits; assay type: binding, human
Method: HEK293T and HeLa cells were authenticated and found 100% identity to ATCC cat. CRL-3216 and ATCC cat. CCL-2, respectively. Jurkat and HaCat cell lines were not authenticated (original source: ECACC and Deutsches Krebsforschungszentrum DKFZ, respectively). HeLa cells were grown in DMEM (1 g/L glucose, Gibco) medium completed with 5% FCS and 40 μg/mL gentamicin, diluted every 3rd/4th day 1/10. HaCat cells were grown in DMEM (1 g/L glucose, Gibco) medium completed with 10% FCS and 40 μg/mL gentamicin, diluted every 3rd/4th day 1/4. Jurkat cells were grown in RPMI (Gibco) medium completed with 10% FCS and 40 μg/mL gentamicin, diluted every 3rd/4th day 1/12. All cells were kept at 37 °C and 5% CO2. For proteomics analyses cells were seeded on T-175 flasks. After they reached confluency, adherent cells were washed with PBS once and collected by scraping with ice-cold lysis buffer (Hepes-KOH pH 7.5 50 mM, NaCl 150 mM, Triton X-100 1%, complete EDTA-free protease inhibitor cocktail 1×, EDTA 2 mM, TCEP 5 mM, glycerol 10%). Jurkat cells were collected by 1000 g × centrifugation, washed once with PBS, then collected by 1000 g × 5 min centrifugation again and lysed in ice-cold lysis buffer. Lysates were sonicated 4 × 20 s with 1 s long pulses on ice, then incubated rotating at 4 °C for 30 min. Lysates were centrifuged at 12,000 rpm 4 °C for 20 min and supernatant was kept for further analysis. Concentration determination was carried out by standard Bradford method (Bio-Rad Protein Assay Dye Reagent #5000006) using BSA (MP BIomedicals #160069) as control on a Bio-Rad SmartSpec 3000 spectrophotometer instrument.
For PBM-AP-MS experiments, 30 μl streptavidin resin was mixed with biotin or peptide at 50–60 μM concentration in 6–6.5 resin volume for 60 min to achieve resin saturation. For PDZ-AP-MS experiments, 30 μl streptavidin resin was mixed with biotinylated MBP or MBP-PDZ at 40-50 μM concentration in >1000× resin volume for 60 min to achieve resin saturation. After saturation, resins were washed a single time (ten resin volume, holdup buffer), and were depleted with biotin (1 mM biotin, 5–10 resin volume, 10 min). Finally, resins were washed two times. 0.5 ml 2 mg/ml cell lysate was added to the dry resin (1 mg total input) and were incubated at 4 °C for 2 h. Then, the beads were washed three times with 10 resin volume buffer containing: 50 mM TRIS pH 8.5, 150 mM NaCl, 1% TritonX-100, 10× complete EDTA-free protease inhibitor cocktail, 2 mM EDTA, 1 mM TCEP. Then, the beads were washed two times with ten resin volume buffer containing: 50 mM TRIS pH 8.5, 150 mM NaCl, 1 mM TCEP. Finally, captured protein was eluted from the resin in two steps and the eluted fractions were pooled. For each elution the beads were incubated for 30 min with three resin volume buffer containing: 20 mM TRIS pH8.5, 100 mM NaCl, 500 μM TCEP, 8 M Urea. Between each step, the beads were separated by mild centrifugation and the supernatant was removed by gentle pipetting.
The samples were precipitated with TCA 20% overnight at 4 °C and centrifuged at 14,000 rpm for 10 min at 4 °C. The protein pellets were washed twice with 1 mL cold acetone and air dried. The protein extracts were solubilized in urea 8 M, reduced with 5 mM TCEP for 30 min, and alkylated with 10 mM iodoacetamide for 30 min in the dark. Double digestion was performed at 37 °C with 500 ng endoproteinase Lys-C for 4 h, followed by fourfold dilution and an overnight digestion with 500 ng trypsin. Peptide mixtures were then desalted on C18 spin-column and dried on Speed-Vacuum.
Samples were analyzed using an Ultimate 3000 nano-RSLC (Thermo Scientific, San Jose California) coupled in line with a LTQ-Orbitrap ELITE mass spectrometer via a nano-electrospray ionization source (Thermo Scientific, San Jose California). […]

Question: Which “final additive pKd” value (PDZ-proteins; PDZ-protein AHNAK) does the source give for HPV35E6 ({Biotin-ttds}-SKPTRRETEV) here?
Answer: 3.5

Question: What about the “final additive pKd” value (PDZ-proteins; PDZ-protein CASK) of the same substance?
Answer: 3.5

Question: What about the “final additive pKd” value (PDZ-proteins; PDZ-protein DLG1) of the same substance?
Answer: 5.779

Question: And the “final additive pKd” value (PDZ-proteins; PDZ-protein InaDl)?
Answer: 3.5

Question: And the “final additive pKd” value (PDZ-proteins; PDZ-protein LAP2)?
Answer: 3.6933

Question: What about the “final additive pKd” value (PDZ-proteins; PDZ-protein LIN7C) of the same substance?
Answer: 3.759

Question: And the “final additive pKd” value (PDZ-proteins; PDZ-protein LNX2)?
Answer: 3.5

Question: And the “final additive pKd” value (PDZ-proteins; PDZ-protein MAGI3)?
Answer: 5.407

Question: What about the “final additive pKd” value (PDZ-proteins; PDZ-protein MPP5) of the same substance?
Answer: 3.5

Question: And the “final additive pKd” value (PDZ-proteins; PDZ-protein MPP6)?
Answer: 3.5

Question: What about the “final additive pKd” value (PDZ-proteins; PDZ-protein MPP7) of the same substance?
Answer: 3.5

Question: And the “final additive pKd” value (PDZ-proteins; PDZ-protein NHERF2)?
Answer: 3.774

Question: What about the “final additive pKd” value (PDZ-proteins; PDZ-protein PDLIM2) of the same substance?
Answer: 3.5

Question: And the “final additive pKd” value (PDZ-proteins; PDZ-protein PDLIM5)?
Answer: 3.5

Question: And the “final additive pKd” value (PDZ-proteins; PDZ-protein PDLIM7)?
Answer: 3.5

Question: And the “final additive pKd” value (PDZ-proteins; PDZ-protein PSMD9)?
Answer: 3.5

Question: What about the “final additive pKd” value (PDZ-proteins; PDZ-protein SCRIB) of the same substance?
Answer: 5.233

Question: What about the “final additive pKd” value (PDZ-proteins; PDZ-protein SNTB1) of the same substance?
Answer: 4.679

Question: And the “final additive pKd” value (PDZ-proteins; PDZ-protein SNX27)?
Answer: 4.662

Question: And the “final additive pKd” value (PDZ-proteins; PDZ-protein SYNJ2BP)?
Answer: 5.6853

Question: What about the “final additive pKd” value (PDZ-proteins; PDZ-protein TX1B3) of the same substance?
Answer: 4.927

Question: What about the “Enrichment values compared to biotin controls” value ([1]; prey APBA1, PBM peptide bait) of the same substance?
Answer: 2.9

Question: And the “Enrichment values compared to biotin controls” value ([1]; prey DLG4, PBM peptide bait)?
Answer: 3.9

Question: What about the “Enrichment values compared to biotin controls” value ([1]; prey DVL2, PBM peptide bait) of the same substance?
Answer: 1.1

Question: And the “Enrichment values compared to biotin controls” value ([1]; prey GOPC, PBM peptide bait)?
Answer: 1.3

Question: What about the “Enrichment values compared to biotin controls” value ([1]; prey InaDl, PBM peptide bait) of the same substance?
Answer: 0.9

Question: What about the “Enrichment values compared to biotin controls” value ([1]; prey LAP2, PBM peptide bait) of the same substance?
Answer: 2.0

Question: What about the “Enrichment values compared to biotin controls” value ([1]; prey LNX2, PBM peptide bait) of the same substance?
Answer: 0.8

Question: And the “Enrichment values compared to biotin controls” value ([1]; prey MAGI3, PBM peptide bait)?
Answer: 3.7

Question: And the “Enrichment values compared to biotin controls” value ([1]; prey MPP1, PBM peptide bait)?
Answer: 1.3

Question: And the “Enrichment values compared to biotin controls” value ([1]; prey MPP5, PBM peptide bait)?
Answer: 1.4

Question: And the “Enrichment values compared to biotin controls” value ([1]; prey MPP6, PBM peptide bait)?
Answer: 1.4

Question: What about the “Enrichment values compared to biotin controls” value ([1]; prey MPP7, PBM peptide bait) of the same substance?
Answer: 2.9

Question: And the “Enrichment values compared to biotin controls” value ([1]; prey MYO18A, PBM peptide bait)?
Answer: 0.9

Question: And the “Enrichment values compared to biotin controls” value ([1]; prey PDLIM2, PBM peptide bait)?
Answer: 1.7

Question: And the “Enrichment values compared to biotin controls” value ([1]; prey PDLIM5, PBM peptide bait)?
Answer: 0.851

Question: And the “Enrichment values compared to biotin controls” value ([1]; prey PDLIM7, PBM peptide bait)?
Answer: 1.2

Question: What about the “Enrichment values compared to biotin controls” value ([1]; prey PDZD11, PBM peptide bait) of the same substance?
Answer: 1.8

Question: What about the “Enrichment values compared to biotin controls” value ([1]; prey PSMD9, PBM peptide bait) of the same substance?
Answer: 0.748

Question: And the “Enrichment values compared to biotin controls” value ([1]; prey SIPA1L1, PBM peptide bait)?
Answer: 1.1

Question: And the “Enrichment values compared to biotin controls” value ([1]; prey SIPA1L2, PBM peptide bait)?
Answer: 1.1

Question: What about the “Enrichment values compared to biotin controls” value ([1]; prey SNTB1, PBM peptide bait) of the same substance?
Answer: 5.0

Question: What about the “Enrichment values compared to biotin controls” value ([1]; prey SNTB2, PBM peptide bait) of the same substance?
Answer: 1.1

Question: And the “Enrichment values compared to biotin controls” value ([1]; prey SNX27, PBM peptide bait)?
Answer: 2.9

Question: And the “Enrichment values compared to biotin controls” value ([1]; prey SYNJ2BP, PBM peptide bait)?
Answer: 12.5

Question: And the “Enrichment values compared to biotin controls” value ([1]; prey TX1B3, PBM peptide bait)?
Answer: 4.1
